Measured values from patent US5449694A, “(-)-ritodrine, therapeutic compositions and use, and method of preparation” (priority 1992, dated 1995).
Where two headings read alike, the source gives them in different places.

Columns and labels:
uterus in situ = experiment: Effect on uterine movement in situ (oxytocin-facilitated, pregnant rat); assay type: in vivo, pregnant Wistar rat; conditions: for ED50 / minimal effective dose: Rattus norvegicus, iv; for ED50: read-out: concentration (dose) required for suppressing 50% of the increase of the uterus due to oxytocin; for minimal effective dose: read-out: dose at which suppressing effect on uterine movement was exhibited; for concentration dependence of suppressing effect: i.v., 0.05-15 mg/kg
From the text: Effect on Uterine Movement in Situ
After a pregnant Wistar rat was anesthesized with urethane-α-chloralose, the abdominal part was incised along the median line and a polyethylene cylinder was inserted. The center of the uterine horn was suspended with a suture, and the uterine movement was isotonically recorded via an isotonic transducer. When the spontaneous movement of the uterus was stabilized, 50 mU/kg/min of oxytocin was infused intravenously to facilitate the movement. When the response due to oxytocin became constant, either (±)-ritodrine hydrochloride, (+)-ritodrine hydrochloride or (-)-ritodrine hydrochloride (0.05-15 mg/kg) was administered intravenously to observe the variation of tension and frequency and amplitude of the spontaneous movement. The suppressing effect of the uterine movement on respective parameters was expressed as the intensity of the activity by either (±)-ritodrine hydrochloride, (+)-ritodrine hydrochloride or (-)-ritodrine hydrochloride based on the state facilitated by oxytocin as 100%. The variations of the tension, and the frequency and amplitude of the spontaneous movement are shown in Tables 2, 3 and 4, respectively. […] In either parameter, the (-)-isomer was effective in a concentration of 1/2-1/3 to the (±)-isomer. The (+)-isomer was effective at a dose of 1.5 mg/kg or more.

mice = experiment: Acute toxicity test in mouse (i.v.); assay type: in vivo, male ICR mice
Description: (§1) Acute Toxicity Test in Mouse
(§2) (±)-Ritodrine hydrochloride, (+)-ritodrine hydrochloride or (-)-ritodrine hydrochloride was administered intravenously at a dose of 40-100 mg/kg to male ICR mice to examine their motality.

[1] = Acute toxicity test in mouse (i.v.); assay type: in vivo, male ICR mice; conditions: mouse, in vivo, iv
Description: as §1, §2

[2] = cited from earlier work
isolated rat myometrium = experiment: Effect on an isolated rat myometrium preparation (oxytocin-induced contraction); parameters: species or system female virgin Wistar rat; conditions: for concentration dependence of relaxation activity: 10^-7 -10^-4 M; for IC50: read-out: concentration required for suppressing 50% of the contraction of an isolated myometrium caused by oxytocin (IC50); for minimal effective concentration: read-out: concentration at which relaxation activity was exhibited
Description: (§3) Effect on an Isolated Rat Myometrium Preparation
(§4) After blowing the cranium of a female virgin Wistar rat, uterus was extracted. The preparation was suspended in a Magnus tube filled with a nutrient solution (Tyrode solution) which was maintained at 36°±1° C. and saturated with a mixed gas of 95% O2 and 5% CO2. Contractile tension was measured via an isotonic transducer and recorded on a polygraph. When the spotaneous movement was stabilized, oxytocin (2×10^-2 U/ml) was administered and either (±)-ritodrine hydrochloride, (+)-ritodrine hydrochloride or (-)-ritodrine hydrochloride (10^-7 -10^-4 M) was applied to the Magnus tube to observe the variation of the contractile tension. Suppresive effect on the oxytocin-contracted uterus was expressed by the intensity of activity of (±)-ritodrine hydrochloride, (+)-ritodrine hydrochloride or (-)-ritodrine hydrochloride based on 100% of the contraction by oxytocin.

[3] = system: guinea pig tracheal smooth muscle; experiment: Effect on an isolated preparation of tracheal muscle in guinea pig (relaxation); parameters: species or system Hartley guinea pig; conditions: for relaxation response of tracheal muscle: 10^-8 -10-4M; for IC50: Cavia porcellus, read-out: concentration required for relaxing 50% of the maximum relaxation effect (IC50); for sequence of intensities of relaxation activity: decreasing sequence
Description: (§5) Effect on an Isolated Preparation of Tracheal Muscle in Guinea Pig
After Hartley guinea pigs having body weight of 430-510 g, were anesthesized with ether, tracheae were excised to make chain preparation according to the method of Akcasu (A. Akcasu, Arch. Int. Pharmacodyn., 1959, 122, 201). The preparations were suspended in a Magnus tube filled with an air-saturated nutrient solution (Tyrode solution) maintained at 37°±1° C. Contractile tension was measured via an isotonic transducer and recorded on a polygraph. Either (±)-ritodrine hydrochloride, (+)-ritodrine hydrochloride or (-)-ritodrine hydrochloride was cumulatively applied so as the concentration in the Magnus tube to be 10^-8 -10-4M.

guinea pig = experiment: Effect on vascular permeability (Evans blue dye infiltration, skin); assay type: in vivo, Hartley guinea pig
Description: Effect on Vascular Permeability
Three Hartley guinea pigs were employed. (±)-Ritodrine hydrochloride, (+)-ritodrine hydrochloride or (-) -ritodrine hydrochloride were administered intracutaneously at a dose of 10^-2 -10^-5 g/ml into the shaved rear part of the guinea pigs. Immediately after the administration, 1 ml of a 1% Evans blue solution was administered intravenously. After 30 minutes, the animals were slaughtered by exsanguination under anesthetization with excessive amount of pentobarbital sodium. The skin was peeled to observe from the internal side of the skin the extent of dye infiltration at the site where the test material was administered. The area with dye having a size ([longer diameter+shorter diameter]/2) of 5 mm or more was judged positive.

[4] = system: smooth muscle (myometrium and tracheal muscle); experiment: Smooth muscle relaxation activity, myometrium and tracheal muscle taken together; parameters: species or system rat, guinea pig; conditions: from the activities on myometrium and tracheal muscle
Description: as §3, §4, §5
After Hartley guinea pigs having body weight of 430-510 g, were anesthesized with ether, tracheae were excised to make chain preparation according to the method of Akcasu (A. Akcasu, Arch. Int. Pharmacodyn., 1959, 122, 201). […] Contractile tension was measured via an isotonic transducer and recorded on a polygraph. […]

[5] = oxytocin 50 mU/kg/min i.v. infusion
[6] = tension, frequency and amplitude of spontaneous movement
[7] = acute toxicity, range stated for all three types, read-out: 50% lethal dose (LD50)
[8] = mice, confidence limits given, read-out: LD50 (Confidence limit)
[9] = Rattus norvegicus, oxytocin 2×10^-2 U/ml, hydrochlorides applied, Tyrode solution 36°C
[10] = oxytocin-contracted isolated rat myometrium
[11] = hydrochlorides, cumulative application, Tyrode solution 37°C

| SMILES | ED50 (uterus in situ; [5]) [mg/kg] | minimal effective dose (uterus in situ; [6]) [mg/kg] | concentration dependence of suppressing effect (uterus in situ) | mortality at 50 mg/kg (mice; i.v., dead/total) | mortality at 60 mg/kg (mice; i.v., dead/total) | mortality at 70 mg/kg (mice; i.v., dead/total) | mortality at 80 mg/kg (mice; i.v., dead/total) | mortality at 90 mg/kg (mice; i.v., dead/total) | sequence of safeties in developing the same level of relaxation effect on smooth muscle (mice; mouse, in vivo) | LD50 [1, 7] [mg/kg] | LD50 [1, 8] [mg/kg] | concentration dependence of relaxation activity (isolated rat myometrium) | IC50 (isolated rat myometrium; [9]) [µM] | minimal effective concentration (isolated rat myometrium; [10]) [µM] | relaxation response of tracheal muscle [3] | IC50 [3, 11] [µM] | sequence of intensities of relaxation activity [3] | vascular permeability, positive at 0.001% (guinea pig; guinea pig) | vascular permeability, positive at 0.01% (guinea pig; guinea pig) | vascular permeability, positive at 0.1% (guinea pig; guinea pig) | further results |
| --- | --- | --- | --- | --- | --- | --- | --- | --- | --- | --- | --- | --- | --- | --- | --- | --- | --- | --- | --- | --- | --- |
| C[C@H](NCCc1ccc(O)cc1)[C@H](O)c1ccc(O)cc1 (relative stereo) [(±)-isomer, (±)-erythro-1-(p-hydroxyphenyl)-2-[2-(p-hydroxyphenyl)ethylamino]-1-propanol] | 0.106 | ≥ 0.05 | increased depending on the concentration | 0/5 | 0/5 | 1/5 | 2/5 | 4/5 | (-)-type>(±)-type>>(+)-type | 50 to 100 | 83 | increased depending on the concentration | 3.53 | 0.1 | relaxation response depending on concentration | 0.136 | (-)-isomer>(±)-isomer>>(+)-isomer | 0/3 | 0/3 | 3/3 | mortality at 100 mg/kg (mice; i.v., 100 mg/kg, dead/total): 4/5; side effects ([2]; background): increase in heart rate; effectiveness in preventing premature birth / suppressing uterine contraction ([2]; known from Japanese Patent Publications): effective in preventing premature birth owing to its excellent activity for suppressing uterine contraction; vascular permeability, positive at 1% (guinea pig; guinea pig): 3/3 |
| C[C@H](NCCc1ccc(O)cc1)[C@H](O)c1ccc(O)cc1.Cl [(-)-isomer, (1R,2S)-2-(4-Hydroxyphenethylamino)-1-(4-hydroxyphenyl)-1-propanol hydrochloride] | – | – | increased depending on the concentration | 1/5 | 3/5 | 3/5 | 3/5 | 5/5 | – | 50 to 100 | 64 | increased depending on the concentration | – | – | relaxation response depending on concentration | – | (-)-isomer>(±)-isomer>>(+)-isomer | – | – | – | ED50 (uterus in situ): 0.059 mg/kg; minimal effective dose (uterus in situ): ≥ 0.05 mg/kg; mortality at 40 mg/kg (mice; i.v., 40 mg/kg, dead/total): 0/5; sequence of safeties in developing the same level of relaxation effect on smooth muscle (mice; ratio of smooth muscle relaxation to lethal toxicity, decreasing sequence): (-)-type>(±)-type>>(+)-type; smooth muscle relaxation activity relative to the (±)-type [4]: 2-3 times; minimal effective concentration (isolated rat myometrium; Rattus norvegicus): 0.1 µM; IC50 (isolated rat myometrium; Rattus norvegicus): 1.35 µM; intensity of activity relative to (±)-ritodrine, by IC50 on isolated myometrium (isolated rat myometrium): about 2.6 times; IC50 [3]: 0.0597 µM; relaxation intensity relative to (±)-ritodrine, by IC50 on isolated tracheal muscle [3]: about 2.3 times; vascular permeability, positive at 0.001% (guinea pig; intracutaneous, 0.001%, positive = dye area 5 mm or more, positive/total): 0/3; vascular permeability, positive at 0.01% (guinea pig; intracutaneous, 0.01%, positive = dye area 5 mm or more, positive/total): 1/3; vascular permeability, positive at 0.1% (guinea pig; intracutaneous, 0.1%, positive = dye area 5 mm or more, positive/total): 2/3; vascular permeability, positive at 1% (guinea pig; intracutaneous, 1%, positive = dye area 5 mm or more, positive/total): 3/3 |
| C[C@@H](NCCc1ccc(O)cc1)[C@@H](O)c1ccc(O)cc1 [(+)-isomer] | 3.61 | ≥ 1.5 | – | 0/5 | 1/5 | 2/5 | 4/5 | 5/5 | (-)-type>(±)-type>>(+)-type | 50 to 100 | 70 | – | 54.6 | ≥ 10 | relaxation response depending on concentration | 5.61 | (-)-isomer>(±)-isomer>>(+)-isomer | 0/3 | 1/3 | 3/3 | intensity of activity relative to (±)-ritodrine, by IC50 on isolated myometrium (isolated rat myometrium): 1/15; relaxation intensity relative to (±)-ritodrine, by IC50 on isolated tracheal muscle [3]: about 1/40 |
